Counter-ions that a name gives are not always drawn.

Chain of IRAK4 (Q9NWZ3 whole entry): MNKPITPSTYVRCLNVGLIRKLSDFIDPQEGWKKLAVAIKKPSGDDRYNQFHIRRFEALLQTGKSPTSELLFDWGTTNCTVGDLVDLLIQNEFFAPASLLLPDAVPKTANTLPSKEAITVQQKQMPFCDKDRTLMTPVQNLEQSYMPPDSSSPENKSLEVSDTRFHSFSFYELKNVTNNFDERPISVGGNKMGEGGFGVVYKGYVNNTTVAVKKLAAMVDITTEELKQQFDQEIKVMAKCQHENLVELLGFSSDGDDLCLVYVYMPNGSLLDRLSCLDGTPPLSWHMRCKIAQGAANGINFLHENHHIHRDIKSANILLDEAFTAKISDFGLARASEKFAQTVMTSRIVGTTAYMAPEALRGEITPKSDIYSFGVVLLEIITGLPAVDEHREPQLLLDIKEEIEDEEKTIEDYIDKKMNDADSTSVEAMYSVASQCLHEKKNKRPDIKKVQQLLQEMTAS

One test has as its target IRAK4 (Homo sapiens (Human), UniProt Q9NWZ3). Description: Screening the compounds against IRAK4 with ATP (Caliper, FAM-labeled peptide). The test is classed as biochemical. Conditions: IRAK4 kinase inhibition relative to CA4948. As for the experimental part: Prepare Ix kinase base buffer and stop buffer for testing kinases: (1) base buffer: 50 mM HEPES (pH 7.5), 0.0015% Brij-35; (2) stop buffer: 100 mM HEPES (pH 7.5), 0.015% Brij-35, 0.2% Coating Reagent #3, 50 mM EDTA. Then prepare compounds for testing: Dilute the compound to 50× of the final desired highest inhibitor concentration in reaction by 100% DMSO. Transfer 100 μL of this compound dilution to a well in a 96-well plate (source plate).
Serially dilute the compounds by 3-fold for a total of 10 points. Transfer 10 μL of the compound from the source plate to a new 96-well plate (intermediate plate) and add 90 μL of Ix kinase buffer. Shake the mixture on the intermediate plate for 10 min. Transfer 5 μL of each well from the 96-well intermediate plate to a 384-well plate in duplicates. Add 10 μL of 2.5× enzyme solution to each well of the 384-well assay plate and incubate at room temperature for 10 min. Add 10 μL, of 2.5×FAM-labeled peptide and ATP solution and incubate at 28° C. for a period of time. Finally stop the reaction by adding 30 μL of stop buffer and collect data on Caliper to obtain the IC50.
For `Cn1cc(-c2cccc(NC(=O)c3cc4c(nc3OC3CC(C)(O)C3)OC(C)(C)C4)n2)cn1` (stereo not drawn) [Compound B35, 6-(3-Hydroxy-3-methylcyclobutoxy)-2,2-dimethyl-N-(6-(1-methyl-1H-pyrazol-4-yl)pyridin-2-yl)-2,3-dihydrofuro[2,3-b]pyridine-5-carboxamide], the “activity, times better than that of the positive control compound CA4948” value (from here on “activity, times better than that”) is on record as “more than 10 times”.

Turning to `Cl.Cn1cc(-c2cccc(NC(=O)c3cc4oc(N5CCOCC5)nc4nc3N3CCN(CCO)CC3)n2)cn1` [Compound A36, 5-(4-(2-Hydroxyethyl)piperazin-1-yl)-N-(6-(1-methyl-1H-pyrazol-4-yl)pyridin-2-yl)-2-morpholinooxazolo[4,5-b]pyridine-6-carboxamide Hydrochloride], the “activity, times better than that” value is “more than 5 times”.

In the case of `Cl.Cn1cc(-c2cccc(NC(=O)c3cc4oc(N5CCOCC5)nc4nc3N3CCN(C4CC4)CC3)n2)cn1` [Compound A35, 5-(4-Cyclopropylpiperazin-1-yl)-N-(6-(1-methyl-1H-pyrazol-4-yl)pyridin-2-yl)-2-morpholinooxazolo[4,5-b]pyridine-6-carboxamide Hydrochloride], the “activity, times better than that” value was “more than 10 times”.

In the case of `Cn1cc(-c2cccc(NC(=O)c3cc4oc(N5CCOCC5)nc4nc3N3CCC(F)(F)CC3)n2)cn1` [Compound A11, 5-(4,4-Difluoropiperidin-1-yl)-N-(6-(1-methyl-1H-pyrazol-4-yl)pyridin-2-yl)-2-morpholinooxazolo[4,5-b]pyridine-6-carboxamide], the “activity, times better than that” value is “more than 5 times”.

For `Cn1cc(-c2cccc(NC(=O)c3cc4c(nc3OC3CC3)OC(C)(C)C4)n2)cn1` [Compound B29, 6-Cyclopropoxy-2,2-dimethyl-N-(6-(1-methyl-1H-pyrazol-4-yl)pyridin-2-yl)-2,3-dihydrofuro[2,3-b]pyridine-5-carboxamide], the “activity, times better than that” value was “more than 10 times”.

Staying with this test, now noted: read-out: IC50 (nM) (10 μM ATP).
In general, IC50 refers to the concentration needed to halve the response being measured. `CC1(C)Cc2cc(C(=O)Nc3cccn(C4CC4)c3=O)c(N3CCC(O)CC3)nc2O1` [Compound B10, N-(1-Cyclopropyl-2-oxo-1,2-dihydropyridin-3-yl)-6-(4-hydroxypiperidin-1-yl)-2,2-dimethyl-2,3-dihydrofuro[2,3-b]pyridine-5-carboxamide]: the IC50 was determined as 479 nM.

The same test, now with this note: read-out: IC50 (nM) (10 μM ATP); IRAK4 kinase, 10 μM ATP.
As to `Cn1cc(-c2cccc(NC(=O)c3cc4oc(N5CCOCC5)nc4nc3N3CC4(CCOC4)C3)n2)cn1` [Compound A18, N-(6-(1-Methyl-1H-pyrazol-4-yl)pyridin-2-yl)-2-morpholino-5-(6-oxa-2-azaspiro[3.4]octan-2-yl)oxazolo[4,5-b]pyridine-6-carboxamide], the IC50 amounted to 221 nM.

For the molecule `CC1(C)Cc2cc(C(=O)Nc3cccn([C@H]4C[C@H]4F)c3=O)c(N3CCC(O)CC3)nc2O1` [Compound B9, N-(1-((1S,2R)-2-Fluorocyclopropyl)-2-oxo-1,2-dihydropyridin-3-yl)-6-(4-hydroxypiperidin-1-yl)-2,2-dimethyl-2,3-dihydrofuro[2,3-b]pyridine-5-carboxamide], the IC50 is 69 nM.

As for `Cn1cc(-c2cccc(NC(=O)c3cc4oc(N5CCOCC5)nc4nc3N3CCNCC3)n2)cn1` [Compound A13, N-(6-(1-Methyl-1H-pyrazol-4-yl)pyridin-2-yl)-2-morpholino-5-(piperazin-1-yl)oxazolo[4,5-b]pyridine-6-carboxamide], the IC50 amounted to 304 nM.

With `Cn1cc(-c2cccc(NC(=O)c3cc4oc(N5CCOCC5)nc4nc3N3CCN4CCC[C@H]4C3)n2)cn1` [Compound A27, (S)-5-(Hexahydropyrrolo[1,2-a]pyrazin-2(1H)-yl)-N-(6-(1-methyl-1H-pyrazol-4-yl)pyridin-2-yl)-2-morpholinooxazolo[4,5-b]pyridine-6-carboxamide], the IC50 was 81 nM.

As for `Cc1cc(-c2nc(NC(=O)c3cc4oc(N5CCOCC5)nc4nc3N3CC[C@@H](O)C3)co2)ccn1` [Compound A49, (R)-5-(3-Hydroxypyrrolidin-1-yl)-N-(2-(2-methylpyridin-4-yl)oxazol-4-yl)-2-morpholinooxazolo[4,5-b]pyridine-6-carboxamide], the IC50 was greater than 6000 nM.

Take `COCCN1CCN(c2nc3nc(N4CCOCC4)oc3cc2C(=O)Nc2cccc(-c3cnn(C)c3)n2)CC1` [Compound A34, 5-(4-(2-Methoxyethyl)piperazin-1-yl)-N-(6-(1-methyl-1H-pyrazol-4-yl)pyridin-2-yl)-2-morpholinooxazolo[4,5-b]pyridine-6-carboxamide Hydrochloride]: the IC50 was 40 nM.

On to `Cn1cc(-c2cccc(NC(=O)c3cc4oc(N5CCOCC5)nc4nc3N3CCC(F)(F)C3)n2)cn1` [Compound A12, 5-(3,3-Difluoropyrrolidin-1-yl)-N-(6-(1-methyl-1H-pyrazol-4-yl)pyridin-2-yl)-2-morpholinooxazolo[4,5-b]pyridine-6-carboxamide], for which the IC50 is 33 nM.

For `Cn1cc(-c2cccc(NC(=O)c3cc4c(nc3OC3CC(C)(O)C3)OC(C)(C)C4)n2)cn1` (stereo not drawn) [Compound B35, 6-(3-Hydroxy-3-methylcyclobutoxy)-2,2-dimethyl-N-(6-(1-methyl-1H-pyrazol-4-yl)pyridin-2-yl)-2,3-dihydrofuro[2,3-b]pyridine-5-carboxamide], the IC50 amounted to 6.8 nM.

In the case of `Cn1cc(-c2cccc(NC(=O)c3cc4c(nc3N3CCN(C5CC5)CC3)OC(C)(C)C4)n2)cn1` [Compound B4, 6-(4-Cyclopropylpiperazin-1-yl)-2,2-dimethyl-N-(6-(1-methyl-1H-pyrazol-4-yl)pyridin-2-yl)-2,3-dihydrofuro[2,3-b]pyridine-5-carboxamide], the IC50 came to 7.5 nM.

Turning to `CN1CCN(c2nc3nc(N4CCOCC4)oc3cc2C(=O)Nc2cccc(-c3cnn(C)c3)n2)CC1` [Compound A3, N-(6-(1-methyl-1H-pyrazol-4-yl)pyridin-2-yl)-5-(4-methylpiperazin-1-yl)-2-morpholinooxazolo[4,5-b]pyridine-6-carboxamide], the IC50 was determined as 43 nM.

For the molecule `Cl.Cn1cc(-c2cccc(NC(=O)c3cc4oc(N5CCOCC5)nc4nc3N3CCN(CCO)CC3)n2)cn1` [Compound A36, 5-(4-(2-Hydroxyethyl)piperazin-1-yl)-N-(6-(1-methyl-1H-pyrazol-4-yl)pyridin-2-yl)-2-morpholinooxazolo[4,5-b]pyridine-6-carboxamide Hydrochloride], the IC50 stood at 17 nM.

As for `Cn1cc(-c2cccc(NC(=O)c3cc4oc(N5CCOCC5)nc4nc3N3CC4(CC(O)C4)C3)n2)cn1` [Compound A22, 5-(6-Hydroxy-2-azaspiro[3.3]heptan-2-yl)-N-(6-(1-methyl-1H-pyrazol-4-yl)pyridin-2-yl)-2-morpholinooxazolo[4,5-b]pyridine-6-carboxamide], the IC50 came to 188 nM.

Regarding `Cn1cc(-c2cccc(NC(=O)c3cc4oc(N5CCNCC5)nc4nc3N3CCC4(CCO4)CC3)n2)cn1` [Compound A55, N-(6-(1-Methyl-1H-pyrazol-4-yl)pyridin-2-yl)-2-(piperazin-1-yl)-5-(1-oxa-7-azaspiro[3.5]nonan-7-yl)oxazolo[4,5-b]pyridine-6-carboxamide], the IC50 was 5.9 nM.

As to `Cl.Cn1cc(-c2cccc(NC(=O)c3cc4oc(N5CCOCC5)nc4nc3N3CCN(C4CC4)CC3)n2)cn1` [Compound A35, 5-(4-Cyclopropylpiperazin-1-yl)-N-(6-(1-methyl-1H-pyrazol-4-yl)pyridin-2-yl)-2-morpholinooxazolo[4,5-b]pyridine-6-carboxamide Hydrochloride], the IC50 is 8.9 nM.

As to `Cn1cc(-c2cccc(NC(=O)c3cc4c(nc3OC3CNC(=O)OC3)OC(C)(C)C4)n2)cn1` (stereo not drawn) [Compound B28, 2,2-Dimethyl-N-(6-(1-methyl-1H-pyrazol-4-yl)pyridin-2-yl)-6-((2-oxo-1,3-oxazinan-5-yl)oxy)-2,3-dihydrofuro[2,3-b]pyridine-5-carboxamide], the IC50 worked out at 248 nM.

As to `Cn1cc(-c2cccc(NC(=O)c3cc4oc(N5CCOCC5)nc4nc3N3CCN4CCC[C@@H]4C3)n2)cn1` [Compound A21, (R)-5-(Hexahydropyrrolo[1,2-a]pyrazin-2(1H)-yl)-N-(6-(1-methyl-1H-pyrazol-4-yl)pyridin-2-yl)-2-morpholinooxazolo[4,5-b]pyridine-6-carboxamide], the IC50 came out at 26 nM.

As for `CN1CCN(c2nc3nc(N4CCOCC4)oc3cc2C(=O)Nc2cccc(-c3cnn(C)c3)n2)CC1CO` (stereo not drawn) [Compound A37, 5-(3-(Hydroxymethyl)-4-methylpiperazin-1-yl)-N-(6-(1-methyl-1H-pyrazol-4-yl)pyridin-2-yl)-2-morpholinooxazolo[4,5-b]pyridine-6-carboxamide Hydrochloride], the IC50 is 462 nM.

In the case of `Cn1cc(-c2cccc(NC(=O)c3cc4oc(N5CCOCC5)nc4nc3N3CCC(F)(F)CC3)n2)cn1` [Compound A11, 5-(4,4-Difluoropiperidin-1-yl)-N-(6-(1-methyl-1H-pyrazol-4-yl)pyridin-2-yl)-2-morpholinooxazolo[4,5-b]pyridine-6-carboxamide], the IC50 came out at 22 nM.

Regarding `Cn1cc(-c2cccc(NC(=O)c3cc4c(nc3OC3CC3)OC(C)(C)C4)n2)cn1` [Compound B29, 6-Cyclopropoxy-2,2-dimethyl-N-(6-(1-methyl-1H-pyrazol-4-yl)pyridin-2-yl)-2,3-dihydrofuro[2,3-b]pyridine-5-carboxamide], the IC50 was 6.2 nM.

Consider `Cn1cc(-c2cccc(NC(=O)c3cc4oc(N5CCOCC5)nc4nc3N3CC(C)(O)C3)n2)cn1` [Compound A14, 5-(3-Hydroxy-3-methylazetidin-1-yl)-N-(6-(1-methyl-1H-pyrazol-4-yl)pyridin-2-yl)-2-morpholinooxazolo[4,5-b]pyridine-6-carboxamide], for which the IC50 was found to be 164 nM.

Consider `CN1CCN(c2nc3c(cc2C(=O)Nc2cccc(-c4cnn(C)c4)n2)CC(C)(C)O3)CC1` [Compound B2, 2,2-Dimethyl-N-(6-(1-methyl-1H-pyrazol-4-yl)pyridin-2-yl)-6-(4-methylpiperazin-1-yl)-2,3-dihydrofuro[2,3-b]pyridine-5-carboxamide], for which the IC50 came out at 54 nM.

Turning to `Cn1cc(-c2cccc(NC(=O)c3cc4c(nc3OC3CCOCC3)OC(C)(C)C4)n2)cn1` [Compound B23, 2,2-Dimethyl-N-(6-(1-methyl-1H-pyrazol-4-yl)pyridin-2-yl)-6-((tetrahydro-2H-pyran-4-yl)oxy)-2,3-dihydrofuro[2,3-b]pyridine-5-carboxamide], the IC50 came to 11 nM.

Regarding `CC(C)Oc1nc2c(cc1C(=O)Nc1cccc(-c3cnn(C)c3)n1)CC(C)(C)O2` [Compound B13, 6-Isopropoxy-2,2-dimethyl-N-(6-(1-methyl-1H-pyrazol-4-yl)pyridin-2-yl)-2,3-dihydrofuro[2,3-b]pyridine-5-carboxamide], the IC50 is 6.2 nM.

For the molecule `Cn1cc(-c2cccc(NC(=O)c3cc4c(nc3O[C@H]3CCOC3)OC(C)(C)C4)n2)cn1` [Compound B17, (S)-2,2-Dimethyl-N-(6-(1-methyl-1H-pyrazol-4-yl)pyridin-2-yl)-6-((tetrahydrofuran-3-yl)oxy)-2,3-dihydrofuro[2,3-b]pyridine-5-carboxamide], the IC50 came out at 6.5 nM.

The record behind these values is US20250074919A1, “Heteroaryl compounds as inhibitors of irak4, compositions and applications thereof” (Accro Bioscience (HK) Limited, priority 2021, published 2025).
